# According to paper PMC11239830, “Synthetic macrolides overcoming MLSBK-resistant pathogens” (Cell Discovery, 2024):
# Assays:
# S. pyogenes = assay: MIC, broth microdilution; assay type: cell-based, Streptococcus pyogenes; details: S. pyogenes 12-206, c-ermTR
# Outline: (§1)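 Minimum inhibitory concentrations were measured by broth microdilution following CLSI guidelines. Plates were incubated at 37 °C for 16–20 h before results were read and recorded, and each determination was repeated at least three times.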
# H. influenzae = assay: MIC, broth microdilution; assay type: cell-based, Haemophilus influenzae; details: H. influenzae ATCC49247, Azi-S
# Outline: as §1
# S. pneumoniae = assay: MIC, broth microdilution; assay type: cell-based, Streptococcus pneumoniae
# Outline: as §1
# M. catarrhalis = assay: MIC, broth microdilution; assay type: cell-based, Moraxella catarrhalis; details: M. catarrhalis 13L332, Ery-S
# Procedure: MICs were determined by the microdilution method according to the Clinical and Laboratory Standards Institute guidelines. Briefly, the stock solution of compounds and the reference antibiotics were diluted 2-fold in sterile 96-well plates with cation-adjusted Mueller-Hinton broth, and mixed with CAMHB-containing bacteria to give a final inoculum of 5 × 10^5 CFU/mL for broth microdilution experiments. […] Finally, the 96-well plates were incubated at 37 °C for 16–20 h to observe and record the results. The lowest concentration at which no bacterial growth could be observed visually was identified as the MICs of the compounds. The assay for MICs was replicated at least three times.
smiles,measurement,setting,value
CCC1OC(=O)C(C)C(OC(=O)NCCCOCCC#Cc2ccc3c(=O)c(C(=O)O)cn(C4CC4)c3c2)C(C)C(OC2OC(C)CC(N(C)C)C2O)C(C)(OC)CC(C)C(=NOC)C(C)C2OC(=O)OC12C (stereo not drawn) (hydrate or solvate) [72c],melting point,,144.6 to 145.2 °C
CC[C@H]1OC(=O)[C@H](C)[C@@H](OC(=O)NCCCOCCC#Cc2ccc3c(=O)c(C(=O)O)c[nH]c3c2)[C@H](C)[C@@H](O[C@@H]2O[C@H](C)C[C@H](N(C)C)[C@H]2O)[C@](C)(OC)C[C@@H](C)C(=O)[C@H](C)[C@H]2NC(=O)O[C@@]21C (hydrate or solvate) [95i],melting point,,163.7 to 164.9 °C
CC[C@H]1OC(=O)[C@H](C)[C@@H](OC(=O)NCCCCCCC#Cc2ccc3c(=O)c(C(=O)O)cn(C)c3c2)[C@H](C)[C@@H](O[C@@H]2O[C@H](C)C[C@H](N(C)C)[C@H]2O)[C@](C)(OC)C[C@@H](C)C(=O)[C@H](C)[C@H]2NC(=O)O[C@@]21C (hydrate or solvate) [MCX-219],melting point,,179.5 to 180.3 °C
CC[C@H]1OC(=O)[C@H](C)[C@@H](OC(=O)NCCCOCCC#Cc2ccc3c(=O)c(C(=O)O)cn(C4CC4)c3c2)[C@H](C)[C@@H](O[C@@H]2O[C@H](C)C[C@H](N(C)C)[C@H]2O)[C@](C)(OC)C[C@@H](C)C(=O)[C@H](C)[C@H]2NC(=O)O[C@@]21C (hydrate or solvate) [95c],melting point,,163.6 to 163.9 °C
CC[C@H]1OC(=O)[C@H](C)[C@@H](OC(=O)NCCCCCCC#Cc2ccc3c(=O)c(C(=O)O)c[nH]c3c2)[C@H](C)[C@@H](O[C@@H]2O[C@H](C)C[C@H](N(C)C)[C@H]2O)[C@](C)(OC)C[C@@H](C)C(=O)[C@H](C)[C@H]2NC(=O)O[C@@]21C (hydrate or solvate) [88i],melting point,,162.9 to 166 °C
CC[C@H]1OC(=O)[C@H](C)[C@@H](OC(=O)NCCCCOCCC#Cc2ccc3c(=O)c(C(=O)O)cn(C)c3c2)[C@H](C)[C@@H](O[C@@H]2O[C@H](C)C[C@H](N(C)C)[C@H]2O)[C@](C)(OC)C[C@@H](C)C(=O)[C@H](C)[C@H]2NC(=O)O[C@@]21C (hydrate or solvate) [96g],melting point,,172.1 to 173.5 °C
CC[C@H]1OC(=O)[C@H](C)[C@@H](OC(=O)NCCCCCCCCc2ccc3c(=O)c(C(=O)O)cn(C)c3c2)[C@H](C)[C@@H](O[C@@H]2O[C@H](C)C[C@H](N(C)C)[C@H]2O)[C@](C)(OC)C[C@@H](C)C(=O)[C@H](C)[C@H]2NC(=O)O[C@@]21C [90g],MIC,S. pyogenes,0.12 mg/L
same,MIC,H. influenzae,4 mg/L
same,MIC,"S. pneumoniae; S. pneumoniae 05O173, c-ermB, mef",8 mg/L
same,MIC,"S. pneumoniae; S. pneumoniae 07P390, c-ermB",0.03 mg/L
same,MIC,"S. pneumoniae; S. pneumoniae ATCC49619, Ery-S",≤ 0.008 mg/L
same,MIC,M. catarrhalis,2 mg/L
